Tests used:
[1] = target: T1, Human GPR120 short form (Homo sapiens, UniProt Q5NUL3); assay: Human GPR120 calcium flux assay, Procedure Calcium B; type: cell-based; details: HEK-293 cells expressing human GPR120 short form, 4200 cells/well, FLIPR
T1 construct: expressed in transfected cells
T1 sequence (Q5NUL3 1-361): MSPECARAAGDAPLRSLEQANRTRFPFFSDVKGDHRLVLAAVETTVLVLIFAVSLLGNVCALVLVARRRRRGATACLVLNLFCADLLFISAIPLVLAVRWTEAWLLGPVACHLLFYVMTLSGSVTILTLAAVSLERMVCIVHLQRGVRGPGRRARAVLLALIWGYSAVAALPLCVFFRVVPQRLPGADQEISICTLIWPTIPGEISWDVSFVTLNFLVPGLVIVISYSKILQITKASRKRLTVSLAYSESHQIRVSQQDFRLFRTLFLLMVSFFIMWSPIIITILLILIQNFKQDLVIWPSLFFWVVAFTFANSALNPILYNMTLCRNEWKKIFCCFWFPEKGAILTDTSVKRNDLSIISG

[2] = target: T2, short form of the GPR120 receptor (Homo sapiens, UniProt Q5NUL3); assay: Human GPR120 DiscoveRx PathHunter β-Arrestin assay, Procedure β-arrestin B; type: cell-based; details: PathHunter CHO-K1 GPR120S β-Arrestin cell line, 5000 cells/well
T2 construct: host or cells: PathHunter CHO-K1 GPR120S β-Arrestin Cell Line
T2 sequence (P32121 whole entry partner, one chain of several): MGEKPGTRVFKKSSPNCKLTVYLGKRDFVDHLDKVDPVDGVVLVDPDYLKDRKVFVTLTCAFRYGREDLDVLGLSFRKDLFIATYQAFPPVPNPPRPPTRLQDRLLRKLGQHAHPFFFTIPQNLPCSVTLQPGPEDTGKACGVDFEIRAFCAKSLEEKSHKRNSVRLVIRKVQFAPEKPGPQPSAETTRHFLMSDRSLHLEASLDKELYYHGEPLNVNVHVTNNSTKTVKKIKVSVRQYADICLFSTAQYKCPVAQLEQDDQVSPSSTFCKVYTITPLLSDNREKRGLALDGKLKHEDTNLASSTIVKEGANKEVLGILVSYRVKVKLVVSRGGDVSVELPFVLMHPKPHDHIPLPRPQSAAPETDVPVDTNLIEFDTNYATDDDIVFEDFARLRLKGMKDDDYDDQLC
Excerpt: The binding of an agonist (medium/long chain fatty acids or small molecule agonists) to the G-protein-coupled receptor GPR120 activates phospholipase C, leading to release of intracellular Ca^+2 through the generation of inositol 1,4,5-trisphosphate (InsP3 or IP3). GPR120 activation can also trigger intracellular signaling via recruitment of β-Arrestin. In the present method, agonist-induced activation of the human GPR120 receptor is monitored through the use of PathHunter CHO-K1 GPR120 β-Arrestin Cell Line engineered by DiscoveRx, as detailed below. The cell lines are designed to co-express both the ProLink/Enzyme Donor (PK)-tagged GPCR and the Enzyme […] (EA)-tagged Beta-Arrestin fusion proteins. Upon GPR120 receptor stimulation/activation, the EA-tagged β-Arrestin portion is translocated to the tagged receptor, where the two enzyme fragments are brought within close proximity. Under these conditions, these fragments can interact and form an active Beta-gal enzyme complex through Enzyme Fragment Complementation (EFC). This active Beta-gal complex can enzymatically hydrolyse the substrate to produce a detectable light signal; therefore, activation as a function of agonist concentration can be expressed as an EC50 value to determine relative compound activities. This in vitro assay therefore serves to assess compound agonist activity of the GPR120.
In Procedure β-arrestin B the cells used were PathHunter CHO-K1 GPR120S β-Arrestin Cell Line, expressing the short form of the GPR120 receptor (Accession #NM_181745), with 5000 cells/well.
The selected CHO-K1 GPR120 β-Arrestin cells were cultured in Ham's F12 media supplemented with 10% fetal bovine serum (FBS), 1% Glutamine, 1×p/s, 800 μg/ml G418 and 300 μg/ml Hygromycin B (for selection). Cell stocks were maintained and grown in a sub-confluent state using standard cell culture procedures. The day before the experiment, the cells were harvested with non-enzymatic cell dissociation buffer and re-suspended in complete growth media at the desired concentration. A Corning 384-plate was then seeded with the proper number of cells in a volume of 25 μL, per well. The seeded plates were incubated overnight at 37° C.
On the day of the experiment, the Assay Buffer containing (a) HBSS with Ca^++ and Mg^++, (b) 20 mM HEPES, and (c) 0.1% BSA stabilizer (pH 7.4) was prepared. The growth medium was gently removed from the cell plates and 20 μL of Assay Buffer added to each well. The plate was then incubated at 37° C. for 60 mins. Test compounds were serially diluted in Assay Buffer to desired concentrations (more particularly, to one or more of the following μM concentrations: 25 μM, 12.5 μM, 6.25 μM, 3.125 μM, 1.562 μM, 0.781 μM, 0.391 μM, 0.195 μM, 0.098 μM, 0.049 μM, 0.024 μM, 0.012 μM). Five μl of compound dilution was then added to each well and the plate incubated at 37° C. for 90 mins. The detection reagents were prepared according to the manufacture's instruction. Twelve μL of the detection reagents were added to each well and the plate incubated at room temperature for 60 mins.
The plates were read on an EnVision instrument, using Protocol name: Luminescence, Plate type: 384 Costar, Measurement height: 3 mm, Measurement time: 1 s, Aperture: 384 Plate aperture. The % activity relative to the positive control was calculated using the following equation:
The % Activity values were plotted versus the concentration of test compound and fitted to a sigmoidal dose-response curve with a Hill slope=1 (fixed value) using nonlinear regression with GraphPad Prism 5.0 to calculate the EC50 values. The Fitting Equation was: Y=Bottom+(Top−Bottom)/(1+10^((LogEC50−X)*HillSlope)), where X is the log of the concentration and Y is the response.

Compound: O=C(O)CCc1cc(F)c(OCc2c(C(F)(F)F)ccn2-c2ccc(Cl)c(F)c2)c(F)c1 [Compound 67, 3-(4-[[1-(4-chloro-3-fluorophenyl)-3-(trifluoromethyl)-1H-pyrrol-2-yl]methoxy]-3,5-difluorophenyl)propanoic acid]
- EC50 [1]: 368 nM
- EC50 [2]: 206 nM

Compound: CCc1ccc(-n2ccc(C(F)(F)F)c2COc2c(F)cc(CC(C)C(=O)O)cc2F)cc1 (centres unmarked) [Compound 61, 3-(4-[[1-(4-ethylphenyl)-3-(trifluoromethyl)-1H-pyrrol-2-yl]methoxy]-3,5-difluorophenyl)-2-methylpropanoic acid]
- EC50 [1]: 236 nM
- EC50 [2]: 639 nM

Compound: O=C(O)CCc1cc(F)c(OCc2c(C(F)(F)F)ccn2-c2ccc(Cl)cc2F)c(F)c1 [Compound 71, 3-(4-{[1-(4-Chloro-2-fluorophenyl)-3-(trifluoromethyl)-1H-pyrrol-2-yl]methoxy}-3,5-difluorophenyl)propanoic acid]
- EC50 [1]: 179 nM
- EC50 [2]: 624 nM

Compound: Cc1ccc(-n2ccc(C(F)(F)F)c2COc2c(F)cc(CCC(=O)O)cc2F)c(F)c1 [Compound 72, 3-(3,5-Difluoro-4-{[1-(2-fluoro-4-methylphenyl)-3-(trifluoromethyl)-1H-pyrrol-2-yl]methoxy}phenyl)propanoic acid]
- EC50 [1]: 118 nM
- EC50 [2]: 624 nM

Compound: Cc1c(CCC(=O)O)ccc(OCc2c(C(F)(F)F)ccn2-c2ccc(F)cc2F)c1C [Compound 77, 3-(4-{[1-(2,4-Difluorophenyl)-3-(trifluoromethyl)-1H-pyrrol-2-yl]methoxy}-2,3-dimethylphenyl)propanoic acid]
- EC50 [1]: 266 nM
- EC50 [2]: 1060 nM

Compound: Cc1ccc(-n2ccc(C(F)(F)F)c2COc2ccc(CCC(=O)O)c(C)c2C)cc1F [Compound 66, 3-(4-{[1-(3-Fluoro-4-methylphenyl)-3-(trifluoromethyl)-1H-pyrrol-2-yl]methoxy}-2,3-dimethylphenyl)propanoic acid]
- EC50 [1]: 315 nM
- EC50 [2]: 412 nM

Compound: O=C(O)CCc1cc(F)c(OCc2c(C(F)(F)F)ccn2-c2ccc(F)c(F)c2)c(F)c1 [Compound 76, 3-(4-{[1-(3,4-Difluorophenyl)-3-(trifluoromethyl)-1H-pyrrol-2-yl]methoxy}-3,5-difluorophenyl)propanoic acid]
- EC50 [1]: 175 nM
- EC50 [2]: 1120 nM

Compound: CC(Cc1cc(F)c(OCc2c(C(F)(F)F)ccn2-c2ccc(Cl)c(F)c2)c(F)c1)C(=O)O (centres unmarked) [Compound 69, 3-(4-[[1-(4-chloro-3-fluorophenyl)-3-(trifluoromethyl)-1H-pyrrol-2-yl]methoxy]-3,5-difluorophenyl)-2-methylpropanoic acid]
- EC50 [1]: 488 nM
- EC50 [2]: 630 nM

Compound: Cc1c(CCC(=O)O)ccc(OCc2c(C(F)(F)F)ccn2-c2ccc(Cl)c(F)c2)c1C [Compound 68, 3-(4-{[1-(4-Chloro-3-fluorophenyl)-3-(trifluoromethyl)-1H-pyrrol-2-yl]methoxy}-2,3-dimethylphenyl)propanoic acid]
- EC50 [1]: 357 nM
- EC50 [2]: 311 nM

Compound: CC(Cc1cc(F)c(OCc2c(C(F)(F)F)ccn2-c2ccc(Cl)cc2)c(F)c1)C(=O)O (centres unmarked) [Compound 59, 3-(4-[[1-(4-chlorophenyl)-3-(trifluoromethyl)-1H-pyrrol-2-yl]methoxy]-3,5-difluorophenyl)-2-methylpropanoic acid]
- EC50 [1]: 290 nM
- EC50 [2]: 417 nM

Compound: Cc1ccc(-n2ccc(C(F)(F)F)c2COc2ccc(CCC(=O)O)c(C)c2C)c(F)c1 [Compound 73, 3-(4-{[1-(2-Fluoro-4-methylphenyl)-3-(trifluoromethyl)-1H-pyrrol-2-yl]methoxy}-2,3-dimethylphenyl)propanoic acid]
- EC50 [1]: 210 nM
- EC50 [2]: 749 nM

Compound: Cc1ccc(-n2ccc(C(F)(F)F)c2COc2c(F)cc(CC(C)C(=O)O)cc2F)cc1 (centres unmarked) [Compound 60, 3-(3,5-difluoro-4-[[1-(4-methylphenyl)-3-(trifluoromethyl)-1H-pyrrol-2-yl]methoxy]phenyl)-2-methylpropanoic acid]
- EC50 [1]: 186 nM
- EC50 [2]: 549 nM

Compound: O=C(O)CCc1cc(F)c(OCc2c(C(F)(F)F)ccn2-c2ccc(F)cc2F)c(F)c1 [Compound 75, 3-(4-{[1-(2,4-Difluorophenyl)-3-(trifluoromethyl)-1H-pyrrol-2-yl]methoxy}-3,5-difluorophenyl)propanoic acid]
- EC50 [1]: 156 nM
- EC50 [2]: 577 nM

Compound: Cc1ccc(-n2ccc(C(F)(F)F)c2COc2c(F)cc(CC(C)C(=O)O)cc2F)cc1F (centres unmarked) [Compound 64, 3-(3,5-difluoro-4-[[1-(3-fluoro-4-methylphenyl)-3-(trifluoromethyl)-1H-pyrrol-2-yl]methoxy]phenyl)-2-methylpropanoic acid]
- EC50 [1]: 212 nM
- EC50 [2]: 264 nM

Compound: CC(Cc1cc(F)c(OCc2c(C(F)(F)F)ccn2-c2ccc(F)cc2)c(F)c1)C(=O)O (centres unmarked) [Compound 65, 3-(3,5-difluoro-4-[[1-(4-fluorophenyl)-3-(trifluoromethyl)-1H-pyrrol-2-yl]methoxy]phenyl)-2-methylpropanoic acid]
- EC50 [1]: 547 nM
- EC50 [2]: 809 nM

Compound: Cc1c(CCC(=O)O)ccc(OCc2c(C(F)(F)F)ccn2-c2ccc(Cl)cc2F)c1C [Compound 74, 3-(4-{[1-(4-Chloro-2-fluorophenyl)-3-(trifluoromethyl)-1H-pyrrol-2-yl]methoxy}-2,3-dimethylphenyl)propanoic acid]
- EC50 [1]: 167 nM
- EC50 [2]: 797 nM

Compound: Cc1c(CCC(=O)O)ccc(OCc2c(C(F)(F)F)ccn2-c2ccc(F)c(F)c2)c1C [Compound 78, 3-(4-{[1-(3,4-Difluorophenyl)-3-(trifluoromethyl)-1H-pyrrol-2-yl]methoxy}-2,3-dimethylphenyl)propanoic acid]
- EC50 [1]: 305 nM
- EC50 [2]: 1420 nM

Compound: Cc1ccc(-n2ccc(C(F)(F)F)c2COc2c(F)cc(CCC(=O)O)cc2F)cc1F [Compound 62, 3-(3,5-difluoro-4-[[1-(3-fluoro-4-methylphenyl)-3-(trifluoromethyl)-1H-pyrrol-2-yl]methoxy]phenyl)propanoic acid]
- EC50 [1]: 262 nM
- EC50 [2]: 96 nM

Compound: O=C(O)CCc1cc(F)c(OCc2c(C(F)(F)F)ccn2-c2ccc(Cl)cc2)c(F)c1 [Compound 70, 3-(4-((1-(4-chlorophenyl)-3-(trifluoromethyl)-1H-pyrrol-2-yl)methoxy)-3,5-difluorophenyl)propanoic acid]
- EC50 [1]: 80 nM
- EC50 [2]: 69 nM

Reference: patent US8912227B1, “Bicyclic pyrrole derivatives useful as agonists of GPR120” (Janssen Pharmaceutica NV, priority 2014, dated 2014)
